{"source": "patent US20230303540A1", "about": "(Merck Sharp & Dohme LLC, priority 2020, published 2023)", "molecular_target": "GST-tagged truncated human mutant G2019S LRRK2 (Homo sapiens, UniProt Q5S007, G2019S)", "experiment": "LRRK2 G2019S Km ATP LanthaScreen assay", "type": "biochemical", "conditions": "134 μM ATP (Km ATP), LRRKtide substrate, mean IC50 values; read-out: LRRK2 pIC50 (converted)", "outline": "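LanthaScreen TR-FRET read with fluorescein-LRRKtide and 134 μM ATP (Km) in Tris pH 8.5/10 mM MgCl2 buffer. The enzyme was preincubated 15 min with compound at room temperature, and the reaction ran 90 min at ambient temperature. Stopped with EDTA plus Tb anti-phospho-LRRKtide antibody; the 520/495 nm ratio gave a 4-parameter logistic IC50, mean of several runs.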"}
{"smiles": "C[C@H]1COC(=O)N1c1ccc2cnc(Nc3cnsc3)nc2c1", "note": "[Ex-8.7, (4S)-4-methyl-3-{2-[(1,2-thiazol-4-yl)amino]quinazolin-7-yl}-1,3-oxazolidin-2-one]", "values": [{"measurement": "IC50", "value": 5.2, "unit": "nM"}]}
{"smiles": "Cc1c(Nc2ncc3cc(Cl)c(N4CCN(C5COCC5O)CC4)cc3n2)cnn1C(C)(C)C#N", "note": "(single isomer, unassigned) [Ex-6.21, (3S,4S) or (3R,4R) 2-[4-({6-chloro-7-[4-(4-hydroxyoxolan-3-yl)piperazin-1-yl]quinazolin-2-yl}amino)-5-methyl-1H-pyrazol-1-yl]-2-methylpropanenitrile]", "values": [{"measurement": "IC50", "value": 0.323, "unit": "nM"}]}
{"smiles": "CC1(O)CCN(c2cc3nc(Nc4cnn(CC(F)F)c4Cl)ncc3cc2Cl)C1", "note": "(centres unmarked) [Ex-1.14, 1-(6-chloro-2-{[5-chloro-1-(2,2-difluoroethyl)-1H-pyrazol-4-yl]amino}quinazolin-7-yl)-3-methylpyrrolidin-3-ol]", "values": [{"measurement": "IC50", "value": 4.71, "unit": "nM"}]}
{"smiles": "O[C@@H]1COC[C@@H]1N1CCN(c2nc3nc(Nc4cnn(C5CC5)c4Cl)ncc3cc2Cl)CC1", "note": "(single isomer, unassigned) [Ex-16.2, (3S,4S) or (3R, 4R)-4-(4-(6-Chloro-2-((5-chloro-1-cyclopropyl-1H-pyrazol-4-yl)amino)pyrido[2,3-d]pyrimidin-7-yl)piperazin-1-yl)tetrahydrofuran-3-ol]", "values": [{"measurement": "IC50", "value": 126, "unit": "nM"}]}
{"smiles": "Cc1c(Nc2ncc3cc(Cl)c(N4CCN(C5(C)COCC5O)CC4)cc3n2)cnn1C", "note": "(single isomer, unassigned) [Ex-3.37, (3R,4R) or (3S,4S) 4-(4-{6-chloro-2-[(1,5-dimethyl-1H-pyrazol-4-yl)amino]quinazolin-7-yl}piperazin-1-yl)-4-methyloxolan-3-ol]", "values": [{"measurement": "IC50", "value": 29.9, "unit": "nM"}]}
{"smiles": "CN(C)[C@@H]1CCN(c2cc3nc(Nc4cnn(CC(F)F)c4Cl)ncc3cc2Cl)C1", "note": "[Ex-1.23, 6-chloro-N-[5-chloro-1-(2,2-difluoroethyl)-1H-pyrazol-4-yl]-7-[(3R)-3-(dimethylamino)pyrrolidin-1-yl]quinazolin-2-amine]", "values": [{"measurement": "IC50", "value": 32.6, "unit": "nM"}]}
{"smiles": "Cc1c(Nc2ncc3cc(Cl)c(N4CCC(C)(O)C(C)C4)cc3n2)cnn1C1CC1", "note": "(single isomer, unassigned) [Ex-3.49, (3R,4R) or (3S,4S) or (3R,4S) or (3S,4R) 1-{6-chloro-2-[(1-cyclopropyl-5-methyl-1H-pyrazol-4-yl)amino]quinazolin-7-yl}-3,4-dimethylpiperidin-4-ol]", "values": [{"measurement": "IC50", "value": 1.33, "unit": "nM"}]}
{"smiles": "COC1CCC1n1ncc(Nc2ncc3cc(Cl)c(N4CCC(C)(O)CC4)cc3n2)c1C", "note": "(single isomer, unassigned) [Ex-6.19, 1-[6-chloro-2-({1-[(1R,2R) or (1S,2S)-2-methoxycyclobutyl]-5-methyl-1H-pyrazol-4-yl}amino)quinazolin-7-yl]-4-methylpiperidin-4-ol]", "values": [{"measurement": "IC50", "value": 2.17, "unit": "nM"}]}
{"smiles": "Cc1cc2cnc(Nc3cnn(C)c3C)nc2cc1N1CCN([C@]2(C)COC[C@@H]2O)CC1", "note": "[Ex-2.1, (3R,4R)-4-(4-(2-((1,5-Dimethyl-1H-pyrazol-4-yl)amino)-6-methylquinazolin-7-yl)piperazin-1-yl)-4-methyltetrahydrofuran-3-ol]", "values": [{"measurement": "IC50", "value": 0.576, "unit": "nM"}]}
{"smiles": "Cc1cc2cnc(Nc3cnn(C45CC(C4)C5)c3Cl)nc2cc1N1CCN(C2COCC2O)CC1", "note": "(single isomer, unassigned) [Ex-5.12, (3S,4S) or (3R,4R) 4-(4-(2-((1-(bicyclo[1.1.1]pentan-1-yl)-5-chloro-1H-pyrazol-4-yl)amino)-6-methylquinazolin-7-yl)piperazin-1-yl)tetrahydrofuran-3-ol]", "values": [{"measurement": "IC50", "value": 5.17, "unit": "nM"}]}
{"smiles": "CC1(O)CCN(c2cc3nc(Nc4cnn([C@H]5CCN(C6COC6)C[C@@H]5F)c4Cl)ncc3cc2Cl)CC1", "note": "[Ex-3.6, 1-[6-chloro-2-({5-chloro-1-[(3S,4S)-3-fluoro-1-(oxetan-3-yl)piperidin-4-yl]-1H-pyrazol-4-yl}amino)quinazolin-7-yl]-4-methylpiperidin-4-ol]", "values": [{"measurement": "IC50", "value": 0.625, "unit": "nM"}]}
{"smiles": "COCC12CC(n3cc(Nc4ncc5cc(Cl)c(N6CCC7(CCOC7)CC6)cc5n4)cn3)(C1)C2", "note": "[Ex-3.33, 6-chloro-N-{1-[3-(methoxymethyl)bicyclo[1.1.1]pentan-1-yl]-1H-pyrazol-4-yl}-7-(2-oxa-8-azaspiro [4.5]decan-8-yl)quinazolin-2-amine]", "values": [{"measurement": "IC50", "value": 1.15, "unit": "nM"}]}
{"smiles": "Cn1ncc(Nc2ncc3ccc(N4C(=O)C5CCC4C5)cc3n2)c1C(F)(F)F", "note": "(single isomer, unassigned) [Ex-4.4, 2-(2-{[1-methyl-5-(trifluoromethyl)-1H-pyrazol-4-yl]amino}quinazolin-7-yl)-2-azabicyclo[2.2.1]heptan-3-one]", "values": [{"measurement": "IC50", "value": 24.6, "unit": "nM"}]}
{"smiles": "Cc1cc2cnc(Nc3cnn(C45CC(C4)C5)c3Cl)nc2cc1N1CCN(C2COCC2O)CC1", "note": "(single isomer, unassigned) [Ex-13.3, (3S,4S) or (3R, 4R)-4-(4-(2-((1-(bicyclo[1.1.1]pentan-1-yl)-5-chloro-1H-pyrazol-4-yl)amino)-6-methylquinazolin-7-yl)piperazin-1-yl)tetrahydrofuran-3-ol]", "values": [{"measurement": "IC50", "value": 6.98, "unit": "nM"}]}
{"smiles": "CC1(N2CCN(c3cc4nc(Nc5cnn(CC(F)F)c5)ncc4cc3Cl)CC2)COC1", "note": "[Ex-6.1, 6-chloro-N-(1-(2,2-difluoroethyl)-1H-pyrazol-4-yl)-7-(4-(3-methyloxetan-3-yl)piperazin-1-yl)quinazolin-2-amine]", "values": [{"measurement": "IC50", "value": 5.68, "unit": "nM"}]}
{"smiles": "Cc1c(Nc2ncc3cc(Cl)c(N4CCC(C)(O)CC4)cc3n2)cnn1C1CC1(F)F", "note": "(single isomer, unassigned) [Ex-6.9, 1-(6-chloro-2-{[1-(2,2-(R) or (S)difluorocyclopropyl)-5-methyl-1H-pyrazol-4-yl]amino}quinazolin-7-yl)-4-methylpiperidin-4-ol]", "values": [{"measurement": "IC50", "value": 1.79, "unit": "nM"}]}
{"smiles": "COCC12CC(n3ncc(Nc4ncc5cc(Cl)c(N6C[C@H]7CC[C@@H](C6)[C@@]7(C)O)cc5n4)c3Cl)(C1)C2", "note": "[Ex-3.1, (Endo)-3-(6-chloro-2-((5-chloro-1-(3-(methoxymethyl)bicyclo[1.1.1]pentan-1-yl)-1H-pyrazol-4-yl)amino)quinazolin-7-yl)-8-methyl-3-azabicyclo[3.2.1]octan-8-ol]", "values": [{"measurement": "IC50", "value": 0.093, "unit": "nM"}]}
{"smiles": "CCn1ncc(Nc2ncc3ccc(N4CCC4C)cc3n2)c1C", "note": "(single isomer, unassigned) [Ex-1.10, (S) or (R) N-(1-ethyl-5-methyl-1H-pyrazol-4-yl)-7-(2-methylazetidin-1-yl)quinazolin-2-amine]", "values": [{"measurement": "IC50", "value": 13.3, "unit": "nM"}]}
{"smiles": "Cc1cc2cnc(Nc3cnn(C45CC(C4)C5)c3Cl)nc2cc1N1CC2(C1)CN(C1COCC1O)C2", "note": "(single isomer, unassigned) [Ex-5.16, (3R,4R) or (3S,4S) 4-(6-(2-((1-(bicyclo[1.1.1]pentan-1-yl)-5-chloro-1H-pyrazol-4-yl)amino)-6-methylquinazolin-7-yl)-2,6-diazaspiro[3.3]heptan-2-yl)tetrahydrofuran-3-ol]", "values": [{"measurement": "IC50", "value": 20.9, "unit": "nM"}]}
{"smiles": "Cn1ncc(Nc2ncc3cc(Cl)c(N4CCN(C5(C)COCC5O)CC4)cc3n2)c1Cl", "note": "(single isomer, unassigned) [Ex-6.36, (3S,4S) or (3R,4R) 4-[4-{6-chloro-2-[(5-chloro-1-methyl-1H-pyrazol-4-yl)amino]quinazolin-7-yl}piperazin-1-yl)-4-methyloxolan-3-ol]", "values": [{"measurement": "IC50", "value": 11.2, "unit": "nM"}]}
{"smiles": "CC1(O)CCN(c2cc3nc(Nc4cnn(C5CC5)c4Cl)ncc3cc2Cl)CC1", "note": "[Ex-3.26, 1-{6-chloro-2-[(5-chloro-1-cyclopropyl-1H-pyrazol-4-yl)amino]quinazolin-7-yl}-4-methylpiperidin-4-ol]", "values": [{"measurement": "IC50", "value": 5.63, "unit": "nM"}]}
{"smiles": "OC1COCC1N1CCN(c2cc3nc(Nc4cnn(C5CC5(F)F)c4Cl)ncc3cc2Cl)CC1", "note": "(single isomer, unassigned) [Ex-6.30, (3S,4S) or (3R,4R) 4-[4-(6-chloro-2-{[5-chloro-1-(2,2-(R) or (S)difluorocyclopropyl)-1H-pyrazol-4-yl]amino}quinazolin-7-yl)piperazin-1-yl]oxolan-3-ol]", "values": [{"measurement": "IC50", "value": 0.9, "unit": "nM"}]}
{"smiles": "COCC12CC(n3cc(Nc4ncc5cc(Cl)c(N6C[C@H]7CC[C@@H](C6)[C@@]7(C)O)cc5n4)cn3)(C1)C2", "note": "[Ex-3.31, (8-syn)-3-[6-chloro-2-({1-[3-(methoxymethyl)bicyclo[1.1.1]pentan-1-yl]-1H-pyrazol-4-yl}amino)quinazolin-7-yl]-8-methyl-3-azabicyclo[3.2.1]octan-8-ol]", "values": [{"measurement": "IC50", "value": 2.08, "unit": "nM"}]}
{"smiles": "CC(C)Nc1cc2nc(Nc3cnn(C4CCN(C5(C)COC5)CC4)c3Cl)ncc2cc1Cl", "note": "[Ex-3.46]", "values": [{"measurement": "IC50", "value": 15, "unit": "nM"}]}
{"smiles": "Cc1nn(C2CC3(C2)CN(C2COC2)C3)cc1Nc1ncc2ccc(N3C(=O)C4CCC3C4)cc2n1", "note": "(single isomer, unassigned) [Ex-8.5, (1R,4S) or (1S,4R)-2-(2-((3-methyl-1-(2-(oxetan-3-yl)-2-azaspiro[3.3]heptan-6-yl)-1H-pyrazol-4-yl)amino)quinazolin-7-yl)-2-azabicyclo[2.2.1]heptan-3-one]", "values": [{"measurement": "IC50", "value": 0.625, "unit": "nM"}]}
{"smiles": "Cc1c(Nc2ncc3cc(Cl)c(N4CCN(C5COCC5O)CC4)cc3n2)cnn1C1CC1(F)F", "note": "(single isomer, unassigned) [Ex-6.44, (3S,4S) or (3R,4R) 4-[4-(6-chloro-2-{[1-(2,2-(R) or (S)difluorocyclopropyl)-5-methyl-1H-pyrazol-4-yl]amino}quinazolin-7-yl)piperazin-1-yl]oxolan-3-ol]", "values": [{"measurement": "IC50", "value": 6.89, "unit": "nM"}]}
{"smiles": "Cn1ncc(Nc2ncc3ccc(N4C(=O)C5CCC4C5)cc3n2)c1C(F)F", "note": "(single isomer, unassigned) [Ex-4.7, 2-(2-{[5-(difluoromethyl)-1-methyl-1H-pyrazol-4-yl]amino}quinazolin-7-yl)-2-azabicyclo[2.2.1]heptan-3-one]", "values": [{"measurement": "IC50", "value": 3.19, "unit": "nM"}]}
{"smiles": "Clc1cc2cnc(Nc3cnn(C4CC4)c3Cl)nc2cc1N1CCC(N2CCC2)CC1", "note": "[Ex-1.28, 7-[4-(azetidin-1-yl)piperidin-1-yl]-6-chloro-N-(5-chloro-1-cyclopropyl-1H-pyrazol-4-yl)quinazolin-2-amine]", "values": [{"measurement": "IC50", "value": 3.31, "unit": "nM"}]}
{"smiles": "Clc1cc2cnc(Nc3cnn(C4CC4)c3Cl)nc2cc1N1CCC(N2CCCC2)CC1", "note": "[Ex-1.44, 6-chloro-N-(5-chloro-1-cyclopropyl-1H-pyrazol-4-yl)-7-[4-(pyrrolidin-1-yl)piperidin-1-yl]quinazolin-2-amine]", "values": [{"measurement": "IC50", "value": 22.3, "unit": "nM"}]}
